Experimental data from PubChem BioAssay (NCI).
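Results reflect a 48-hour exposure of cells in 96-well plates to compound at five concentrations. At the TGI there is no net growth.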

What was measured:
Assay in all cases: inhibition of tumour cell growth, NCI panel, 48 h
[1] = test system: SW-620 colon
[2] = test system: HL-60(TB) leukemia
[3] = test system: U251 CNS
[4] = test system: SK-OV-3 ovarian
[5] = test system: SK-MEL-2 melanoma
[6] = test system: TK-10 renal
[7] = test system: LXFL 529 NSCLC
[8] = test system: SNB-78 CNS
[9] = test system: SK-MEL-28 melanoma
[10] = test system: OVCAR-8 ovarian
[11] = test system: NCI-H23 lung
[12] = test system: DMS 273 small cell lung
[13] = test system: DMS 114 small cell lung
[14] = test system: UACC-62 melanoma
[15] = test system: CAKI-1 renal
[16] = test system: SNB-19 CNS
[17] = test system: HCT-15 colon
[18] = test system: M19-MEL melanoma
[19] = test system: ACHN renal
[20] = test system: MALME-3M melanoma
[21] = test system: HT29 colon
[22] = test system: COLO 205 colon
[23] = test system: OVCAR-4 ovarian
[24] = test system: KM12 colon
[25] = test system: SK-MEL-5 melanoma
[26] = test system: UACC-257 melanoma
[27] = test system: HOP-92 NSCLC
[28] = test system: RPMI-8226 leukemia
[29] = test system: OVCAR-3 ovarian
[30] = test system: XF 498 CNS
[31] = test system: 786-0 renal
[32] = test system: SF-268 CNS
[33] = test system: A549 NSCLC
[34] = test system: KM20L2 colon
[35] = test system: LOX IMVI melanoma
[36] = test system: CCRF-CEM leukemia
[37] = test system: A498 renal
[38] = test system: UO-31 renal
[39] = test system: EKVX NSCLC
[40] = test system: MOLT-4 leukemia
[41] = test system: SF-295 CNS
[42] = test system: DLD-1 colon
[43] = test system: K-562 leukemia
[44] = test system: SN12C renal
[45] = test system: RXF-631 renal
[46] = test system: OVCAR-5 ovarian
[47] = test system: NCI-H460 lung
[48] = test system: NCI-H226 lung
[49] = test system: HCC-2998 colon
[50] = test system: M14 melanoma
[51] = test system: IGROV1 ovarian
[52] = test system: SNB-75 CNS
[53] = test system: NCI-H522 lung
[54] = test system: HOP-62 NSCLC
[55] = test system: RXF 393 renal
[56] = test system: SR leukemia
[57] = test system: SF-539 CNS
[58] = test system: HCT-116 colon
[59] = test system: HOP-18 NSCLC

COc1ccc2c(c1)[n+]([O-])c(-c1c(Cl)cccc1Cl)c(N)[n+]2[O-]
TGI [1]: > 100 µM | TGI [2]: > 100 µM | TGI [3]: > 100 µM | TGI [4]: > 100 µM | TGI [5]: > 100 µM | TGI [6]: > 100 µM | TGI [7]: > 100 µM | TGI [8]: > 100 µM | TGI [9]: 84 µM | TGI [10]: > 100 µM | TGI [11]: 63.7 µM | TGI [12]: > 100 µM | TGI [13]: > 100 µM | TGI [14]: > 100 µM | TGI [15]: > 100 µM | TGI [16]: > 100 µM | TGI [17]: > 100 µM | TGI [18]: > 100 µM | TGI [19]: > 100 µM | TGI [20]: 48.4 µM | TGI [21]: > 100 µM | TGI [22]: 71.6 µM | TGI [23]: > 100 µM | TGI [24]: > 100 µM | TGI [25]: 42.9 µM | TGI [26]: 61.8 µM | TGI [27]: > 100 µM | TGI [28]: > 100 µM | TGI [29]: > 100 µM | TGI [30]: > 100 µM | TGI [31]: > 100 µM | TGI [32]: > 100 µM | TGI [33]: > 100 µM | TGI [34]: > 100 µM | TGI [35]: > 100 µM | TGI [36]: > 100 µM | TGI [37]: > 100 µM | TGI [38]: > 100 µM | TGI [39]: > 100 µM | TGI [40]: > 100 µM | TGI [41]: > 100 µM | TGI [42]: > 100 µM | TGI [43]: > 100 µM | TGI [44]: > 100 µM | TGI [45]: 60.1 µM | TGI [46]: > 100 µM | TGI [47]: > 100 µM | TGI [48]: > 100 µM | TGI [49]: > 100 µM | TGI [50]: > 100 µM | TGI [51]: > 100 µM | TGI [52]: > 100 µM

COc1ccc(=[O+]C)c2nssc1-2
TGI [53]: > 100 µM | TGI [1]: > 100 µM | TGI [2]: > 100 µM | TGI [3]: 79.6 µM | TGI [4]: > 100 µM | TGI [5]: > 100 µM | TGI [6]: > 100 µM | TGI [7]: > 100 µM | TGI [8]: > 100 µM | TGI [9]: > 100 µM | TGI [10]: > 100 µM | TGI [11]: > 100 µM | TGI [12]: > 100 µM | TGI [54]: > 100 µM | TGI [14]: 67.7 µM | TGI [15]: > 100 µM | TGI [55]: > 100 µM | TGI [16]: > 100 µM | TGI [18]: 40.2 µM | TGI [19]: > 100 µM | TGI [20]: > 100 µM | TGI [21]: > 100 µM | TGI [22]: > 100 µM | TGI [23]: > 100 µM | TGI [24]: > 100 µM | TGI [25]: 35.8 µM | TGI [26]: 71.5 µM | TGI [29]: > 100 µM | TGI [30]: > 100 µM | TGI [31]: > 100 µM | TGI [32]: > 100 µM | TGI [33]: > 100 µM | TGI [34]: > 100 µM | TGI [35]: > 100 µM | TGI [36]: > 100 µM | TGI [37]: > 100 µM | TGI [38]: > 100 µM | TGI [39]: > 100 µM | TGI [40]: > 100 µM | TGI [41]: > 100 µM | TGI [42]: > 100 µM | TGI [56]: > 100 µM | TGI [43]: > 100 µM | TGI [57]: 48.7 µM | TGI [44]: > 100 µM | TGI [58]: > 100 µM | TGI [45]: > 100 µM | TGI [46]: > 100 µM | TGI [47]: > 100 µM | TGI [48]: > 100 µM | TGI [49]: > 100 µM | TGI [50]: > 100 µM | TGI [51]: > 100 µM | TGI [52]: > 100 µM

O=C(O/N=C1/CCCC/C1=C\c1ccccc1)c1ccc(Cl)c(Cl)c1
TGI [53]: 33.1 µM | TGI [1]: 35.8 µM | TGI [2]: 34.1 µM | TGI [3]: 32.9 µM | TGI [4]: > 100 µM | TGI [5]: > 100 µM | TGI [6]: 58.8 µM | TGI [7]: 27.9 µM | TGI [8]: 39.5 µM | TGI [9]: 68.4 µM | TGI [10]: 32.5 µM | TGI [11]: 36.7 µM | TGI [12]: 53.8 µM | TGI [54]: > 100 µM | TGI [14]: 45.6 µM | TGI [15]: 67.2 µM | TGI [55]: 60.2 µM | TGI [16]: > 100 µM | TGI [17]: > 100 µM | TGI [59]: > 100 µM | TGI [18]: > 100 µM | TGI [19]: 30.3 µM | TGI [20]: > 100 µM | TGI [21]: 48.9 µM | TGI [22]: 81.5 µM | TGI [23]: 54.4 µM | TGI [24]: > 100 µM | TGI [25]: > 100 µM | TGI [26]: > 100 µM | TGI [27]: > 100 µM | TGI [28]: > 100 µM | TGI [29]: 41 µM | TGI [30]: > 100 µM | TGI [31]: 96.2 µM | TGI [32]: 24.6 µM | TGI [33]: 32.3 µM | TGI [34]: > 100 µM | TGI [35]: 42.8 µM | TGI [36]: 53.2 µM | TGI [38]: 31.8 µM | TGI [39]: > 100 µM | TGI [40]: 60.9 µM | TGI [41]: > 100 µM | TGI [42]: > 100 µM | TGI [56]: > 100 µM | TGI [43]: 34.5 µM | TGI [57]: 60 µM | TGI [44]: > 100 µM | TGI [58]: 26.4 µM | TGI [45]: 31.8 µM | TGI [46]: > 100 µM | TGI [47]: > 100 µM | TGI [48]: > 100 µM | TGI [49]: > 100 µM | TGI [50]: > 100 µM | TGI [51]: 52.5 µM | TGI [52]: 61.6 µM
